# Assay results from patent US10081624B2, “Heterocyclic compound” (Takeda Pharmaceutical Company Limited, priority 2014, dated 2018).
# What was measured:
# HDAC1 enzyme = target: T1, HDAC1 enzyme (Homo sapiens, UniProt Q13547); assay: HDAC1 enzyme inhibitory assay (HDAC-Glo I/II Assay kit); type: biochemical; conditions: 1 μM test compound; read-out: HDAC1 inhibitory rate (%) (1 μM)
# T1 construct: prepared by transducing full length HDAC1 and HDAC6 genes into Sf-9 insect cells; GST; purchased SignalChem; host or cells: Sf-9 insect cells
# T1 sequence (Q13547 whole entry): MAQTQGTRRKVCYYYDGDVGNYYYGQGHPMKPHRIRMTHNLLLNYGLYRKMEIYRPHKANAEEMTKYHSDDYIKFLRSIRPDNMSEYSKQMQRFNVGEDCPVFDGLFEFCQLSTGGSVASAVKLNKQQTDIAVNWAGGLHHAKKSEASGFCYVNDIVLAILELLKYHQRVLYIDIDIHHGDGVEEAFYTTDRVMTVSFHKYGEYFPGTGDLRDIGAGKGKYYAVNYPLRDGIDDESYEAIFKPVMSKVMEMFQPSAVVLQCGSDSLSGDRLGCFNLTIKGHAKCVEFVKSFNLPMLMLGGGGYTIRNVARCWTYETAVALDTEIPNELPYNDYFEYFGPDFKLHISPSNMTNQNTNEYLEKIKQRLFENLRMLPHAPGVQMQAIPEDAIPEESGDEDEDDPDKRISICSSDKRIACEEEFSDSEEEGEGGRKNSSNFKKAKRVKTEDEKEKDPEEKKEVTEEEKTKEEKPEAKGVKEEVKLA
# Summary of the method: (§1)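 Sf-9-expressed GST-purified full-length HDAC1/HDAC6; cpd + enzyme 60 min RT, 24 mM Tris-HCl pH 7.5, 135 mM NaCl, 0.6 mM glutathione, 0.01% Tween-20; substrate-developer 20 min RT; luminescence; no-enzyme wells = 100% inhibition.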
# HDAC6 enzyme = target: T2, HDAC6 enzyme (Homo sapiens, UniProt Q9UBN7); assay: HDAC6 enzyme inhibitory assay (HDAC-Glo I/II Assay kit); type: biochemical; conditions: 1 μM test compound; read-out: HDAC6 inhibitory rate (%) (1 μM)
# T2 construct: prepared by transducing full length HDAC1 and HDAC6 genes into Sf-9 insect cells; GST; purchased SignalChem; host or cells: Sf-9 insect cells
# T2 sequence (Q9UBN7 1-1215): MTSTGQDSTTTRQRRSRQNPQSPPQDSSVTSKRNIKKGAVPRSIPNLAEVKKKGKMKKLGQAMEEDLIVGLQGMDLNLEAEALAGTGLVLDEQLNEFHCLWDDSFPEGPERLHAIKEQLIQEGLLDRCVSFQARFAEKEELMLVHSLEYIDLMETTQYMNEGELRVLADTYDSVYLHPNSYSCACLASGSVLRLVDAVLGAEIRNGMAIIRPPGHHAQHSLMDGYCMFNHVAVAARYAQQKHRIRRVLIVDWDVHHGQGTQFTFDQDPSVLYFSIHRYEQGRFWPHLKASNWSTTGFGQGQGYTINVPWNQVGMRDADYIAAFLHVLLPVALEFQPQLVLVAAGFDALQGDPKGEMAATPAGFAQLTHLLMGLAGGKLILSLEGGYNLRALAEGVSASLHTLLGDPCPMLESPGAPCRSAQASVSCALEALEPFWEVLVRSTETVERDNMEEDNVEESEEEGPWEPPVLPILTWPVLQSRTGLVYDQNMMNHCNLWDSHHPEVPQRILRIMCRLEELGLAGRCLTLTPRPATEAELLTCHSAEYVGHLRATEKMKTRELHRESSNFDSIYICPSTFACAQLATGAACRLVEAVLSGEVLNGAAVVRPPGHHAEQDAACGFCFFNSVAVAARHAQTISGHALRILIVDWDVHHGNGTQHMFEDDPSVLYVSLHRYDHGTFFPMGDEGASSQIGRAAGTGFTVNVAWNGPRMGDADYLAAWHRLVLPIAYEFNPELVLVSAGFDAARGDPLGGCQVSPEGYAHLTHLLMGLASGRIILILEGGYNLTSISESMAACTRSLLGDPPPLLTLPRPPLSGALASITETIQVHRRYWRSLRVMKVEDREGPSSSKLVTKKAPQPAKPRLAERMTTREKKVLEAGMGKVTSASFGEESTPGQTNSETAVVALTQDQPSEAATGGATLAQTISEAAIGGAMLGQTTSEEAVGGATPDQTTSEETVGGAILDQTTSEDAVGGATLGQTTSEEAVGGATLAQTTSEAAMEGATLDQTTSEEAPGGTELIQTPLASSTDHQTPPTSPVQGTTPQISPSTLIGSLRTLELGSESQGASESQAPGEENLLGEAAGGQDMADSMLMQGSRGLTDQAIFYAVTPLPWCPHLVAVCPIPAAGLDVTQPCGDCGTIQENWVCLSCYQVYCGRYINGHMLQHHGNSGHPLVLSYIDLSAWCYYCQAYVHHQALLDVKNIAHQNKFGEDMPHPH
# Summary of the method: as §1
inhibition at 1 µM (HDAC1 enzyme) [%],inhibition at 1 µM (HDAC6 enzyme) [%],Structure (SMILES)
8,95,"O=C(NCC1CCc2ccccc2N1C(=O)C1CC1)c1ccc(-c2noc(C(F)(F)F)n2)cc1 (centres unmarked) [Example 172, N-((1-(cyclopropylcarbonyl)-1,2,3,4-tetrahydroquinolin-2-yl)methyl)-4-(5-(trifluoromethyl)-1,2,4-oxadiazol-3-yl)benzamide]"
2,100,"O=C(NC[C@H]1COCCN1C(=O)N1CCC[C@@H]1CO)c1ccc(-c2noc(C(F)(F)F)n2)cc1 [Example 108, N-(((3S)-4-(((2R)-2-(hydroxymethyl)pyrrolidin-1-yl)carbonyl)morpholin-3-yl)methyl)-4-(5-(trifluoromethyl)-1,2,4-oxadiazol-3-yl)benzamide]"
16,98,"Cc1nonc1C(=O)N1CCOC[C@H]1CNC(=O)c1ccc(-c2noc(C(F)(F)F)n2)cc1 [Example 132, N-(((3R)-4-((4-methyl-1,2,5-oxadiazol-3-yl)carbonyl)morpholin-3-yl)methyl)-4-(5-(trifluoromethyl)-1,2,4-oxadiazol-3-yl)benzamide]"
20,98,"O=C(NC[C@H]1COCCN1C(=O)C1(c2ccccc2)CC1)c1ccc(-c2noc(C(F)(F)F)n2)cn1 [Example 202, N-(((3S)-4-((1-phenylcyclopropyl)carbonyl)morpholin-3-yl)methyl)-5-(5-(trifluoromethyl)-1,2,4-oxadiazol-3-yl)pyridine-2-carboxamide]"
16,90,"O=C(NCC1CCc2ccccc2N1C(=O)c1ccccc1)c1ccc(-c2noc(C(F)(F)F)n2)cc1 (centres unmarked) [Example 173, N-((1-benzoyl-1,2,3,4-tetrahydroquinolin-2-yl)methyl)-4-(5-(trifluoromethyl)-1,2,4-oxadiazol-3-yl)benzamide]"
32,99,"CC(C)(C(=O)N1CCOC[C@@H]1CNC(=O)c1ccc(-c2noc(C(F)(F)F)n2)s1)c1ccccc1 [Example 263, N-(((3S)-4-(2-methyl-2-phenylpropanoyl)morpholin-3-yl)methyl)-5-(5-(trifluoromethyl)-1,2,4-oxadiazol-3-yl)thiophene-2-carboxamide]"
19,99,"COc1cccc(C(=O)N2CCOCC2CNC(=O)c2ccc(-c3noc(C(F)(F)F)n3)cc2)c1 (centres unmarked) [Example 29, N-((4-(3-methoxybenzoyl)morpholin-3-yl)methyl)-4-(5-(trifluoromethyl)-1,2,4-oxadiazol-3-yl)benzamide]"
16,97,"O=C(NCC1CCCN1C(=O)c1ccccc1)c1ccc(-c2noc(C(F)(F)F)n2)cc1 (centres unmarked) [Example 162, N-((1-benzoylpyrrolidin-2-yl)methyl)-4-(5-(trifluoromethyl)-1,2,4-oxadiazol-3-yl)benzamide]"
51,98,"CCn1nccc1C(=O)N1CCOCC1CNC(=O)c1ccc(-c2noc(C(F)(F)F)n2)cc1 (stereo in doubt) [Example 106, N-(((3S)-4-((1-ethyl-1H-pyrazol-5-yl)carbonyl)morpholin-3-yl)methyl)-4-(5-(trifluoromethyl)-1,2,4-oxadiazol-3-yl)benzamide]"
12,97,"O=C(NC[C@@H]1COCCN1C(=O)N1CCCCC1)c1ccc(-c2noc(C(F)(F)F)n2)cc1 [Example 158, N-(((3R)-4-(piperidin-1-ylcarbonyl)morpholin-3-yl)methyl)-4-(5-(trifluoromethyl)-1,2,4-oxadiazol-3-yl)benzamide]"
11,97,"O=C(NCC1COCCN1C(=O)c1cc(F)c(F)c(F)c1)c1ccc(-c2noc(C(F)(F)F)n2)cc1 (stereo in doubt) [Example 119, N-(((3R)-4-(3,4,5-trifluorobenzoyl)morpholin-3-yl)methyl)-4-(5-(trifluoromethyl)-1,2,4-oxadiazol-3-yl)benzamide]"
46,100,"Cc1oc2ccccc2c1C(=O)N1CCOC[C@@H]1CNC(=O)c1ccc(-c2noc(C(F)(F)F)n2)cc1 [Example 308, N-(((3S)-4-((2-methyl-1-benzofuran-3-yl)carbonyl)morpholin-3-yl)methyl)-4-(5-(trifluoromethyl)-1,2,4-oxadiazol-3-yl)benzamide]"
17,97,"O=C(NCC1COCCN1C(=O)c1ccccc1N1CCOCC1)c1ccc(-c2noc(C(F)(F)F)n2)cc1 (stereo in doubt) [Example 118, N-(((3R)-4-(2-(morpholin-4-yl)benzoyl)morpholin-3-yl)methyl)-4-(5-(trifluoromethyl)-1,2,4-oxadiazol-3-yl)benzamide]"
18,100,"O=C(NC[C@H]1COCCN1C(=O)c1cc(F)cc(F)c1)c1ccc(-c2noc(C(F)(F)F)n2)cc1 [Example 39, N-(((3S)-4-(3,5-difluorobenzoyl)morpholin-3-yl)methyl)-4-(5-(trifluoromethyl)-1,2,4-oxadiazol-3-yl)benzamide]"
18,97,"O=C(NCC1COCCN1C(=O)C1(c2ccccc2)CC1)c1ccc(-c2noc(C(F)(F)F)n2)s1 (centres unmarked) [Example 248, N-((4-((1-phenylcyclopropyl)carbonyl)morpholin-3-yl)methyl)-5-(5-(trifluoromethyl)-1,2,4-oxadiazol-3-yl)thiophene-2-carboxamide]"
36,95,"O=C(NCC1COCCN1C(=O)c1ccc(-c2ccccc2)cc1)c1ccc(-c2noc(C(F)(F)F)n2)cc1 (centres unmarked) [Example 23, N-((4-(biphenyl-4-ylcarbonyl)morpholin-3-yl)methyl)-4-(5-(trifluoromethyl)-1,2,4-oxadiazol-3-yl)benzamide]"
24,101,"O=C(NCC1COCCN1C(=O)c1cccc(Cl)c1)c1ccc(-c2noc(C(F)(F)F)n2)cc1 (centres unmarked) [Example 7, N-((4-(3-chlorobenzoyl)morpholin-3-yl)methyl)-4-(5-(trifluoromethyl)-1,2,4-oxadiazol-3-yl)benzamide]"
11,97,"Cc1cc(C(=O)N2CCOC[C@H]2CNC(=O)c2ccc(-c3noc(C(F)(F)F)n3)cc2)on1 [Example 134, N-(((3R)-4-((3-methyl-1,2-oxazol-5-yl)carbonyl)morpholin-3-yl)methyl)-4-(5-(trifluoromethyl)-1,2,4-oxadiazol-3-yl)benzamide]"
2,76,"O=C(NC[C@H]1COCCN1C(=O)N1CCCC1c1cccnc1)c1ccc(-c2noc(C(F)(F)F)n2)cc1 (stereo partly drawn) [Example 292, N-(((3S)-4-((2-(pyridin-3-yl)pyrrolidin-1-yl)carbonyl)morpholin-3-yl)methyl)-4-(5-(trifluoromethyl)-1,2,4-oxadiazol-3-yl)benzamide]"
16,94,"O=C(NC[C@H]1COCCN1C(=O)c1cccc(-c2ccccc2)c1)c1ccc(-c2noc(C(F)(F)F)n2)s1 [Example 262, N-(((3S)-4-(biphenyl-3-ylcarbonyl)morpholin-3-yl)methyl)-5-(5-(trifluoromethyl)-1,2,4-oxadiazol-3-yl)thiophene-2-carboxamide]"
10,95,"O=C(NC[C@@H]1COCCN1C(=O)CC1CC1)c1ccc(-c2noc(C(F)(F)F)n2)cc1 [Example 148, N-(((3R)-4-(cyclopropylacetyl)morpholin-3-yl)methyl)-4-(5-(trifluoromethyl)-1,2,4-oxadiazol-3-yl)benzamide]"
9,89,"O=C(NC[C@H]1COCCN1C(=O)N1CCCC(CO)C1)c1ccc(-c2noc(C(F)(F)F)n2)cc1 (stereo partly drawn) [Example 276, N-(((3S)-4-((3-(hydroxymethyl)piperidin-1-yl)carbonyl)morpholin-3-yl)methyl)-4-(5-(trifluoromethyl)-1,2,4-oxadiazol-3-yl)benzamide]"
